Read-outs that look alike come from different tables or passages of the source.
What was measured:
[1] = Log D by octanol/aqueous buffer partitioning; format: physicochemical; settings: pH 7.4, 1-octanol/buffer
Description: The Log D of selected compounds was evaluated by octanol/aqueous buffer partitioning. 500 μL of organic phase (1-octanol) was added to each well of a 2 mL deep well plate, followed by 500 μL of buffer and 15 μL of test compound in DMSO (0.15 mM). The plate was vortexed for 10 seconds and incubated at room temperature for 1 hr on a plate shaker at 200 rpm. After incubation, the samples were allowed to equilibrate for 20 min and then centrifuged at 4000 rpm for 30 min for complete phase separation. The distribution of test compound in buffer and octanol phase was analyzed by HPLC-UV. Log D=Log (Area of Octanol/Area of Buffer).

[2] = In vivo pharmacokinetic properties in rats (IV and PO); design: species or system male Sprague Dawley rats; settings: for % F (Bioavailability of oral delivery) / bioavailability: PO 10 mg/kg vs IV 2 mg/kg; for AUC(0-t) / clearance / half-life / Vd / bioavailability / Tmax: male, Sprague Dawley, rat, plasma; for clearance: read-out: Intravenous Delivery (IV) CL; for Vd: read-out: Intravenous Delivery (IV) Vd; for bioavailability: read-out: % F (Bioavailability of oral delivery); for Tmax: read-out: Oral Administration (PO) Tmax
Description: (§1) The in vivo pharmacokinetic properties of compounds by both intravenous and oral administration were evaluated in male Sprague Dawley rats or C57BL/6J mice.
(§2) Animals were housed in cages with clean bedding. Certified rodent diet was provided. Water was available ad libitum. Environmental controls for the animal room were set to maintain a temperature of 22° C. to 25° C., humidity of 40-70% RH, and a 12-hour light/12-hour dark cycle. Normal healthy animals certified by the attending veterinarian were selected and acclimatized for minimum three days prior to initiation of study.
Surgical Procedure for Jugular Vein Cannulation of Rats: Rats were anaesthetized with a single dose of ketamine 50 mg/kg i.p.+xylazine 6 mg/kg i.p. The right jugular vein was exposed, a loose ligature was placed caudally, and the cranial end of vein was ligated. A small incision was made between the ligatures into which the catheter (polyethylene 50 tubing of internal diameter 0.58 mm and outer diameter 0.96 mm) was inserted. The catheter was secured in place by tying the loose ligature around the catheterized vessel. A small incision was made in the scapular region to serve as the exit site of the catheter. The catheter was subcutaneously tunneled and exteriorized through scapular incision. A stay suture was placed in the scapular area. Patency was tested, and catheter was filled with a locking solution (heparinized saline) and sealed with a stainless steel plug. The incision was then sutured with sterile suturing material. Anti-septic solution was applied to the sutured site and animal was placed back in the home cage.
(§3) To evaluate pharmacokinetic properties of intravenous delivery, male Sprague Dawley rats were administered 2.00 mg compound/kg animal weight through the tail vein. The concentration of the compound in the plasma of the animals was evaluated at 0.083, 0.25, 0.5, 1, 2, 4, 8, 12 and 24 hr by taking blood samples from the cannulated jugular vein. For the C5Bl/6J mice, blood samples were collected through a capillary, guided in retro-orbital plexus.
To evaluate pharmacokinetic properties of oral delivery, rats (male Sprague Dawley rats) or mice (C5Bl/6J) were administered 10 mg compound/kg animal weight by mouth. The concentration of compound in the plasma of the animals was evaluated at 0.25, 0.5, 1, 2, 4, 6, 8, 12 and 24 hr by taking blood samples from the cannulated jugular vein (rats) or through a capillary, guided in retro-orbital plexus (mice).

[3] = tested on: liver gene expression (ACACA, ACLY, FASN, LSS, PNPLA3); test: Liver gene expression in mice after oral administration; format: in vivo; settings: 30 mpk, vs vehicle
Description: (§4) The pharmacodynamic properties of selected compounds were evaluated in mice. The animals were housed in cages with clean bedding, and maintained and monitored for good health in accordance with Test Facility SOPs and at the discretion of the laboratory animal veterinarian. Certified rodent diet was provided. Food and water was available ad libitum. Environmental controls for the animal room were set to maintain a temperature of 22° C. to 25° C., humidity of 40-70% RH, and a 12-hour light/[…]. Normal healthy animals certified by the attending veterinarian were selected and acclimatized for minimum three days prior to initiation of study. Animals were identified with body markings.
(§5) Aliquots of the compounds being evaluated were weighed and triturated with 0.5% methylcellulose (with the addition of 5% N-methyl pyrrolidone when required to remove clumping, as for Z-806) to an appropriate dose concentration. Vials were labeled with the information about study number, test item, concentration and date of preparation. A description of appearance of formulation was recorded (e.g., color, turbidity, etc.). The composition of formulation vehicle was recorded. An aliquot of each dose solution was taken before the dosing began and after dosing was finished, and stored at approximately −20° C. or below for subsequent analysis. The animals were dosed orally through oral gavage needle, and time of dosing was recorded.
(§6) Liver Collection at 6 h or 24 h: Immediately after blood withdrawal for pharmacokinetic evaluation (at 6 or at 24 h), liver tissue was collected without perfusion. Animals were euthanized using carbon dioxide gas in a CO2 chamber. The whole blood was drained by cutting the both side jugular vein and abdominal aorta. The liver was separated out. All the liver samples were divided in two parts. The first part (200 mg approx.) was snap frozen using liquid nitrogen as soon as possible. These samples were immediately transferred to −80° C. for storage. The remaining part was weighed and used for bioanalysis.
RNA Processing and Gene Expression Analysis: Liver Tissue RNA was harvested with the RNEasy kit and 20-100 ng used to synthesize cDNA with random primers following the manufacturer's protocol. Quantitative PCR was performed on 1 pg to 100 ng cDNA for the following genes: ACACA, ACLY, FASN, LSS, PNPLA3. Gene expression levels were determined using ΔΔCT method comparing treated to vehicle treated samples as a baseline, and fold change calculated. The average value for all 5 genes above was averaged and termed to Total Fold Change The results from this evaluation are presented in Table 8.

[4] = Plasma and liver compound levels in mice after oral administration; format: in vivo; settings: 30 mpk; for concentration at 6 h / concentration at 24 h: mouse, 30 mg/kg
Description: as §4, §5
After dosing, the mice were anesthetized using gaseous anesthesia. Blood samples were collected through a capillary, guided in retro-orbital plexus, at 6 h or at 24 h. Approximately 100 uL of blood was collected from each mouse, in pre-labeled tubes. The collected blood was stored on ice prior to centrifugation. Blood samples were then centrifuged within 1 hour of collection to separate plasma. Centrifugation was conducted at 2500×g for 15 minutes at 4° C. The plasma was separated and transferred to pre-labeled micro-centrifuge tubes and promptly frozen at −80±10° C. until bioanalysis.
as §6

[5] = In vivo pharmacokinetic properties in mice (IV and PO); design: species or system C57BL/6J mice; settings: mouse, in vivo; for Intravenous Delivery (IV) AUC0-last / Intravenous Delivery (IV) CL / Intravenous Delivery (IV) T1/2 / Intravenous Delivery (IV) Vd: 2 mg/kg; for Oral Administration (PO) AUC0-last / Oral Administration (PO) T1/2 / Oral Administration (PO) Tmax: 10 mg/kg
Description: as §1, §2, §3
[…] The concentration of compound in the plasma of the animals was evaluated at 0.25, 0.5, 1, 2, 4, 6, 8, 12 and 24 hr by taking blood samples from the cannulated jugular vein (rats) or through a capillary, guided in retro-orbital plexus (mice).

[6] = 1-octanol/aqueous buffer, read-out: LogD
[7] = 10 mg/kg, heading: Oral Administration AUC0-last, PO, 10 mg/kg
[8] = IV, 2 mg/kg, read-out: Intravenous Delivery (IV) AUC0-last
[9] = IV, 2 mg/kg, read-out: Intravenous Delivery (IV) T1/2 (converted)
[10] = PO, 10 mg/kg, read-out: Oral Administration (PO) T1/2 (converted)

| SMILES | LogD [1] | Intravenous Delivery (IV) CL ([2]; IV, 2 mg/kg) [mL/min/kg] | Intravenous Delivery (IV) T1/2 ([2]; IV, 2 mg/kg) [h] | Intravenous Delivery (IV) Vd ([2]; IV, 2 mg/kg) [L/kg] | % F (Bioavailability of oral delivery) [2] [%] | Oral Administration (PO) AUC0-last ([2]; PO, 10 mg/kg) | Oral Administration (PO) T1/2 ([2]; PO, 10 mg/kg) [h] | Oral Administration (PO) Tmax ([2]; PO, 10 mg/kg) [h] | Total Gene FC Time (6 h) [3] | Total Gene FC Time (24 h) [3] | Liver ng/mg (6 h) [4] [ng/mg] | Plasma ng/mL (6 h) [4] [ng/mL] | Liver ng/mg 24 h [4] [ng/mg] | Plasma ng/mL (24 h) [4] [ng/mL] | % F (Bioavailability of oral delivery) [5] [%] | Intravenous Delivery (IV) AUC0-last [5] [ng·h/mL] | Intravenous Delivery (IV) CL [5] [mL/min/kg] | Intravenous Delivery (IV) T1/2 [5] [h] | Intravenous Delivery (IV) Vd [5] [L/kg] | Oral Administration (PO) AUC0-last [5] [ng·h/mL] | also measured |
| --- | --- | --- | --- | --- | --- | --- | --- | --- | --- | --- | --- | --- | --- | --- | --- | --- | --- | --- | --- | --- | --- |
| CC(C)(C)c1cc(-c2cccc(-c3ccc(C(=O)N4CCC(O)CC4)cc3Cl)c2)ccn1 [Compound Z-744] | 4.12 | 13.1 | 1.91 | 2.16 | 8.6 | 1058 | 2.35 | 2 | ++ (0.51-0.7509 = ++) | + (>0.751 = +) | >1000 | 100 to 1000 | >1000 | 100 to 1000 | – | – | – | – | – | – | – |
| CC(C)OC(=O)Nc1ccc(-c2cncc(-c3ccnc(C(C)(C)C)c3)c2)c(Cl)c1 [Compound Z-774] | 4.12 | 15.7 | 5.92 | 7.97 | 5.8 | 604 | 3.74 | 0.333 | ++ (0.51-0.7509 = ++) | +++ (0-0.509 = +++) | >1000 | 100 to 1000 | >1000 | 100 to 1000 | 16 | 1780 | 18.5 | 5.31 | 8.51 | 1380 | Oral Administration (PO) T1/2 [5]: 6.79 h; Oral Administration (PO) Tmax [5]: 0.5 h |
| CC1(O)CCN(C(=O)c2ccc(-c3cncc(-c4ccnc(C(C)(C)C)c4)c3)c(Cl)c2)CC1 [Compound Z-780] | 3.76 | 16.7 | 1.14 | 1.64 | 29 | 2989 | 0.92 | 0.75 | + (>0.751 = +) | ++ (0.51-0.7509 = ++) | >1000 | 100 to 1000 | >100 | <100 | 33 | 913 | 36.3 | 2.02 | 6.33 | 1510 | Oral Administration (PO) T1/2 [5]: 1.24 h; Oral Administration (PO) Tmax [5]: 0.25 h |
| CC(C)(O)c1cc(-c2cncc(-c3ccc(C(=O)N4CCC(O)CC4)cc3Cl)c2)ccn1 [Compound Z-796, (3-chloro-4-(2′-(2-hydroxypropan-2-yl)-[3,4′-bipyridin]-5-yl)phenyl)(4-hydroxypiperidin-1-yl)methanone] | – | – | – | – | – | – | – | – | + (>0.751 = +) | + (>0.751 = +) | – | – | – | – | – | – | – | – | – | – | LogD [1, 6]: 2.08; AUC(0-t) [2, 7]: 7140 ng·h/mL; AUC(0-t) [2, 8]: 3800 ng·h/mL; clearance ([2]; IV, 2 mg/kg): 8.78 mL/min/kg; half-life [2, 9]: 3.08 h; Vd ([2]; IV, 2 mg/kg): 2.37 L/kg; bioavailability [2]: 38%; half-life [2, 10]: 3.22 h; Tmax ([2]; PO, 10 mg/kg): 0.667 h; concentration at 6 h ([4]; liver, read-out: Liver ng/mg (6 h)): > 1e+06 ng/g; concentration at 24 h ([4]; liver, read-out: Liver ng/mg 24 h): < 100000 ng/g; concentration at 6 h ([4]; plasma, read-out: Plasma ng/mL (6 h)): 100 to 1000 ng/mL; concentration at 24 h ([4]; plasma, read-out: Plasma ng/mL (24 h)): < 100 ng/mL |
| CC(C)(C)c1cc(-c2cncc(-c3ccc(NS(C)(=O)=O)cc3Cl)c2)ccn1 [Compound Z-803, N-(4-(2′-(tert-butyl)-[3,4′-bipyridin]-5-yl)-3-chlorophenyl)methanesulfonamide] | – | – | – | – | – | – | – | – | – | – | – | – | – | – | – | – | – | – | – | – | LogD [1, 6]: 3.84; AUC(0-t) [2, 7]: 2580 ng·h/mL; AUC(0-t) [2, 8]: 6160 ng·h/mL; clearance ([2]; IV, 2 mg/kg): 5.2 mL/min/kg; half-life [2, 9]: 4.86 h; Vd ([2]; IV, 2 mg/kg): 2.18 L/kg; bioavailability [2]: 8.3%; half-life [2, 10]: 4.37 h; Tmax ([2]; PO, 10 mg/kg): 3.33 h |
| Cc1cc(C(=O)N2CCC(O)CC2)ccc1-c1cncc(-c2ccnc(C(C)(C)C)c2)c1 [Compound Z-817] | 3.36 | 5.24 | 3.11 | 1.41 | 13 | 3992 | 2.56 | 0.33 | + (>0.751 = +) | + (>0.751 = +) | 100 to 1000 | <100 | <100 | <100 | – | – | – | – | – | – | – |
